According to US20090062251A1, “Novel Compounds 002” (ASTRAZENECA AB, priority 2007, published 2009):

Key:
[1] = target: T1, Human CB1 receptor (hCB1) (Homo sapiens, UniProt P21554); test: hCB1 receptor binding (3H-CP55,940 displacement); settings: hCB1 membranes, Ki=IC50/(1+[rad]/Kd)
T1 construct: purchased Receptor Biology
Description: hCB1 and hCB2 Receptor Binding
Human CB1 receptor from Receptor Biology (hCB1) or human CB2 receptor from BioSignal (hCB2) membranes are thawed at 37° C., passed 3 times through a 25-gauge blunt-end needle, diluted in the cannabinoid binding buffer (50 mM Tris, 2.5 mM EDTA, 5 mM MgCl2, and 0.5 mg/mL BSA fatty acid free, pH 7.4) and aliquots containing the appropriate amount of protein are distributed in 96-well plates. […] The total and non-specific binding are determined in the absence and presence of 0.2 μM of HU210 respectively. The plates are vortexed and incubated for 60 minutes at room temperature, filtered through Unifilters GF/B (presoaked in 0.1% polyethyleneimine) with the Tomtec or Packard harvester using 3 mL of wash buffer (50 mM Tris, 5 mM MgCl2, 0.5 mg BSA pH 7.0). The filters are dried for 1 hour at 55° C. The radioactivity (cpm) is counted in a TopCount (Packard) after adding 65 μl/well of MS-20 scintillation liquid.
Based on the above assays, the dissociation constant (Ki) for a particular compound of the invention towards a particular receptor is determined using the following equation:
[rad] is a standard or reference radioactive ligand concentration at that moment; and
Kd is the dissociation constant of the radioactive ligand towards the particular receptor.

[2] = target: T1, Human CB1 receptor (hCB1); test: hCB1 GTPγS binding; type: biochemical; settings: for EC50: hCB1 membranes, GTPγ35S, 10-point dose-response; for Emax: maximal stimulated binding determined with 10 μM Win 55,212-2
How it was run: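 Human CB1 membranes in 50 mM Hepes, 100 mM NaCl, 1 mM EDTA, 5 mM MgCl2, 0.1% BSA, pH 7.4 were preincubated 5 min with GDP (30 μM final). Basal and maximal binding were defined without or with 10 μM Win 55,212-2; incubation 60 min RT; filter-bound radioactivity counted. Antagonist reversal used fixed antagonist with agonist curve, or fixed agonist with antagonist curve.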

T1 sequence (P21554 whole entry): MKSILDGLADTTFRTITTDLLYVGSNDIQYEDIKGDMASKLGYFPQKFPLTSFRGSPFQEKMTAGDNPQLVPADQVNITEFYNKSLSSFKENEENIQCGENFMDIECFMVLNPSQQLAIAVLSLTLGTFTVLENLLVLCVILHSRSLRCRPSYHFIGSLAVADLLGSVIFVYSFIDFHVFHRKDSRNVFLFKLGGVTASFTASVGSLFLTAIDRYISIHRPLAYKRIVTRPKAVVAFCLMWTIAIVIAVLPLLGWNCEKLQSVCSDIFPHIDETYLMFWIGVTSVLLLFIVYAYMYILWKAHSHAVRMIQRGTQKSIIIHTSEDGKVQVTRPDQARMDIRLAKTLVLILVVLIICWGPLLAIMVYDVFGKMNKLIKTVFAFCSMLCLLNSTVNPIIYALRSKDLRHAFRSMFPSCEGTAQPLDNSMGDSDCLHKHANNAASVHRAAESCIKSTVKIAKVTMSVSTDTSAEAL

Structure (SMILES) | Ki [1] | EC50 [2] | Emax [2]
CCNC(=O)CCCN(C)C(=O)c1ccc2c(c1)c1c(n2C)CCC(C2CCOCC2)C1 (stereo not drawn) [N-[3-(ethylcarbamoyl)propyl]-N,9-dimethyl-6-(oxan-4-yl)-5,6,7,8-tetrahydrocarbazole-3-carboxamide] | 36.6 nM | 63.5 nM | 111%
C[C@H](C(=O)NCCF)N(C)C(=O)c1ccc2c(c1)c1c(n2C)CCC(C2CCOCC2)C1 (stereo partly drawn) [N-[(1R)-1-(2-fluoroethylcarbamoyl)ethyl]-N,9-dimethyl-6-(oxan-4-yl)-5,6,7,8-tetrahydrocarbazole-3-carboxamide] | 157 nM | 353 nM | 107%
C[C@H](C(=O)NC1CC1)N(C)C(=O)c1ccc2c(c1)c1c(n2C)CCC(C2CCOCC2)C1 (stereo partly drawn) [N-[(1R)-1-(cyclopropylcarbamoyl)ethyl]-N,9-dimethyl-6-(oxan-4-yl)-5,6,7,8-tetrahydrocarbazole-3-carboxamide] | 19.6 nM | 29.6 nM | 120%
CCNC(=O)[C@@H](C)N(C)C(=O)c1ccc2c(c1)c1c(n2C)CCC(C2CCOCC2)C1 (stereo partly drawn) [N-[(1R)-1-(ethylcarbamoyl)ethyl]-N,9-dimethyl-6-(oxan-4-yl)-5,6,7,8-tetrahydrocarbazole-3-carboxamide] | 77.1 nM | 237 nM | 112%
Cn1c2c(c3cc(C(=O)N4CCC[C@H](NC(=O)C5CC5)C4)ccc31)CC(C1CCOCC1)CC2 (stereo partly drawn) [N-[(3S)-1-[9-methyl-6-(oxan-4-yl)5,6,7,8-tetrahydrocarbazole-3-carbonyl]-3-piperidyl]cyclopropanecarboxamide] | 43.4 nM | 87.2 nM | 119%
Cn1c2c(c3cc(C(=O)N4CC(C(=O)NC5CC5)C4)ccc31)CC(C1CCOCC1)CC2 (stereo not drawn) [N-cyclopropyl-1-[9-methyl-6-(oxan-4-yl)5,6,7,8-tetrahydrocarbazole-3-carbonyl]azetidine-3-carboxamide] | 107 nM | 274 nM | 121%
Cn1c2c(c3cc(C(=O)N4CCCC(C(=O)NC5CC5)C4)ccc31)CC(C1CCOCC1)CC2 (stereo not drawn) [N-cyclopropyl-1-[9-methyl-6-(oxan-4-yl)5,6,7,8-tetrahydrocarbazole-3-carbonyl]piperidine-3-carboxamide] | 32.4 nM | 128 nM | 115%
Cn1c2c(c3cc(C(=O)N4CCC(C(=O)NC5CC5)CC4)ccc31)CC(C1CCOCC1)CC2 (stereo not drawn) [N-cyclopropyl-1-[9-methyl-6-(oxan-4-yl)5,6,7,8-tetrahydrocarbazole-3-carbonyl]piperidine-4-carboxamide] | 118 nM | 214 nM | 102%
Cn1c2c(c3cc(C(=O)N4CCC(C(=O)NC5CC5)C4)ccc31)CC(C1CCOCC1)CC2 (stereo not drawn) [N-cyclopropyl-1-[9-methyl-6-(oxan-4-yl)5,6,7,8-tetrahydrocarbazole-3-carbonyl]pyrrolidine-3-carboxamide] | 26 nM | 18.5 nM | 121%
Cn1c2c(c3cc(C(=O)N4CC[C@H](CC(=O)NC5CC5)C4)ccc31)CC(C1CCOCC1)CC2 (stereo partly drawn) [N-cyclopropyl-2-[(3R)-1-[9-methyl-6-(oxan-4-yl)5,6,7,8-tetrahydrocarbazole-3-carbonyl]pyrrolidin-3-yl]acetamide] | 35.5 nM | 69.2 nM | 115%
CCNC(=O)C1CCN(C(=O)c2ccc3c(c2)c2c(n3C)CCC(C3CCOCC3)C2)C1 (stereo not drawn) [N-ethyl-1-[9-methyl-6-(oxan-4-yl)5,6,7,8-tetrahydrocarbazole-3-carbonyl]pyrrolidine-3-carboxamide] | 163 nM | 324 nM | 119%
CCN(CC(=O)NCC(F)(F)F)C(=O)c1ccc2c(c1)c1c(n2S(=O)(=O)CC)CCC(C2CCOCC2)C1 (stereo not drawn) [N-ethyl-9-ethylsulfonyl-6-(oxan-4-yl)-N-(2,2,2-trifluoroethylcarbamoylmethyl)-5,6,7,8-tetrahydrocarbazole-3-carboxamide] | 25.1 nM | 51.4 nM | 112%
CCN(CC(=O)NCCF)C(=O)c1ccc2c(c1)c1c(n2S(=O)(=O)CC)CCC(C2CCOCC2)C1 (stereo not drawn) [N-ethyl-9-ethylsulfonyl-N-(2-fluoroethylcarbamoylmethyl)-6-(oxan-4-yl)-5,6,7,8-tetrahydrocarbazole-3-carboxamide] | 12.9 nM | 12.9 nM | 107%
CCN(CC(=O)NCCCF)C(=O)c1ccc2c(c1)c1c(n2S(=O)(=O)CC)CCC(C2CCOCC2)C1 (stereo not drawn) [N-ethyl-9-ethylsulfonyl-N-(3-fluoropropylcarbamoylmethyl)-6-(oxan-4-yl)-5,6,7,8-tetrahydrocarbazole-3-carboxamide] | 24 nM | 33 nM | 120%
CCN(CC(=O)NCCCO)C(=O)c1ccc2c(c1)c1c(n2S(=O)(=O)CC)CCC(C2CCOCC2)C1 (stereo not drawn) [N-ethyl-9-ethylsulfonyl-N-(3-hydroxypropylcarbamoylmethyl)-6-(oxan-4-yl)-5,6,7,8-tetrahydrocarbazole-3-carboxamide] | 45.8 nM | 53.3 nM | 126%
CCN(CC(=O)NC1COC1)C(=O)c1ccc2c(c1)c1c(n2C)CCC(C2CCOCC2)C1 (stereo not drawn) [N-ethyl-9-methyl-6-(oxan-4-yl)-N-(oxetan-3-ylcarbamoylmethyl)-5,6,7,8-tetrahydrocarbazole-3-carboxamide] | 63 nM | 128 nM | 117%
CCN(CC(=O)NC(C)C)C(=O)c1ccc2c(c1)c1c(n2C)CCC(C2CCOCC2)C1 (stereo not drawn) [N-ethyl-9-methyl-6-(oxan-4-yl)-N-(propan-2-ylcarbamoylmethyl)-5,6,7,8-tetrahydrocarbazole-3-carboxamide] | 31.3 nM | 41.7 nM | 123%
CCN(CC(=O)N[C@@H]1CCOC1)C(=O)c1ccc2c(c1)c1c(n2C)CCC(C2CCOCC2)C1 (stereo partly drawn) [N-ethyl-9-methyl-6-(oxan-4-yl)-N-[[(3R)-oxolan-3-yl]carbamoylmethyl]-5,6,7,8-tetrahydrocarbazole-3-carboxamide] | 218 nM | 525 nM | 127%
CCN(CC(=O)N[C@H]1CCOC1)C(=O)c1ccc2c(c1)c1c(n2C)CCC(C2CCOCC2)C1 (stereo partly drawn) [N-ethyl-9-methyl-6-(oxan-4-yl)-N-[[(3S)-oxolan-3-yl]carbamoylmethyl]-5,6,7,8-tetrahydrocarbazole-3-carboxamide] | 58.1 nM | 100 nM | 122%
CCN(CC(=O)NC)C(=O)c1ccc2c(c1)c1c(n2C)CCC(C2CCOCC2)C1 (stereo not drawn) [N-ethyl-9-methyl-N-(methylcarbamoylmethyl)-6-(oxan-4-yl)-5,6,7,8-tetrahydrocarbazole-3-carboxamide] | 140 nM | 342 nM | 116%
CCN(CC(=O)NCCOC)C(=O)c1ccc2c(c1)c1c(n2C)CCC(C2CCOCC2)C1 (stereo not drawn) [N-ethyl-N-(2-methoxyethylcarbamoylmethyl)-9-methyl-6-(oxan-4-yl)-5,6,7,8-tetrahydrocarbazole-3-carboxamide] | 219 nM | 457 nM | 113%
CCN(CCCCO)C(=O)c1ccc2c(c1)c1c(n2C)CCC(C2CCOCC2)C1 (stereo not drawn) [N-ethyl-N-(4-hydroxybutyl)-9-methyl-6-(oxan-4-yl)-5,6,7,8-tetrahydrocarbazole-3-carboxamide] | 72.3 nM | 275 nM | 122%
